Experimental data: US7906308B2, “Phosphorylation and regulation of Akt/PKB by the rictor-mTOR complex” (Whitehead Institute for Biomedical Research, priority 2005, dated 2011)
One block for each molecule: values may come before it.

Key:
[1] = molecular target: mTORC2 assembly (Homo sapiens, UniProt P42345+P62942); assay: 35S pulse-chase of newly synthesized mTOR bound to rictor; assay type: cell-based; conditions: 100 nM
Experimental: 4×10^6 Hela or PC3 cells growing in 100 mm dishes were treated with 100 nM rapamycin or vehicle control for 20 minutes, rinsed once in methionine- and cysteine-free DMEM, and then incubated in 3.5 ml of the same medium containing 10% dialyzed serum and 0.1 mCi/ml of ^35S-methionine/^35S-cysteine (Express Protein Labeling Mix, Perkin Elmer). After allowing the cells to label for 30 minutes, the cells were washed once in the normal culture medium and incubated in fresh medium for the periods of time indicated in the figures. […] Quantification was performed using images acquired with a phosphoimager.

[2] = tissue penetration with phospho-S6 as marker; assay type: in vivo, mice; conditions: 10 mg/kg intraperitoneal daily
Experimental: (§1) 1 mg of rapamycin was dissolved in 20 μl of ethanol, which was then diluted with Ringer's saline solution to a final concentration of 1 mg/ml directly before use. Three-month old male C57BL/6NTac (Taconic) mice were administered daily intraperitioneal injections of 10 mg/kg rapamycin or the drug vehicle for 7 days. Mice were then euthanized with CO2, organs were harvested into RIPA buffer, and homogenized with mechanical disruption followed by sonication. […] The experiment was repeated twice with similar results.

[3] = Morrisett et al. 2003; cited from earlier work
[4] = food intake during 7-day treatment; assay type: in vivo, mice; conditions: 10 mg/kg daily
Experimental: as §1

[5] = molecular target: T1, rictor-mTOR complex (Homo sapiens, UniProt P42345); assay: rictor-mTOR immunoprecipitate kinase assay with Akt1/PKB1 as substrate; assay type: biochemical; conditions: immunoprecipitates from HEK-293T or HeLa cells; FIG. 3C
T1 construct: Immunoprecipitates prepared from lysates of HEK-293T or HeLa cells with the indicated antibodies; endogenous in cells; host or cells: A1: HEK-293T or HeLa; A11: PC3, BJAB, Jurkat, HeLa, H460 (treated with rapamycin before lysis)
Experimental: For all immunoprecipitation experiments the lysis buffer contained 0.3% CHAPS instead of 1% Triton in order to preserve the integrity of the mTOR complexes (D. D. Sarbassov et al., Curr Biol 14, 1296 (2004); D.-H. Kim et al., Cell 110, 163 (2002)). 4 μg of the indicated antibodies were added to the cleared cellular lysates and incubated with rotation for 90-min. 25 μl of a 50% slurry of protein G-sepharose was then added and the incubation continued for 1 h. Immunoprecipitates captured with protein G-sepharose were washed four times with the CHAPS Lysis Buffer and once with the rictor-mTOR kinase buffer (25 mM Hepes pH 7.5, 100 mM potassium acetate, 1 mM MgCl2). […] After a quick spin, the supernatant was removed from the protein G-sepharose and analyzed by immunoblotting (D.-H. Kim et al., Cell 110, 163 (2002)). […] Supernatants were used in the Akt1/PKB1 kinase assay as described below and were also analyzed by immunoblotting. The pelleted G-sepharose beads were also analyzed by immunoblotting to determine the levels of rictor, mTOR, and raptor in the immunoprecipitates. Akt1/PKB1 kinase activity was determined using Crosstide (Upstate Biotechnology, #12-331) as substrate as recommended by the manufacturers protocol. […] After the washing, the P81 squares were dried and radioactivity read in a scintillation counter.

[6] = molecular target: full length, wild-type Akt1/PKB1 (inactive, Upstate Biotechnology #14-279) (UniProt P31749)
Sequence of full length, wild-type Akt1/PKB1 (inactive, Upstate Biotechnology #14-279) (P31749 whole entry, looked up, tested part not stated): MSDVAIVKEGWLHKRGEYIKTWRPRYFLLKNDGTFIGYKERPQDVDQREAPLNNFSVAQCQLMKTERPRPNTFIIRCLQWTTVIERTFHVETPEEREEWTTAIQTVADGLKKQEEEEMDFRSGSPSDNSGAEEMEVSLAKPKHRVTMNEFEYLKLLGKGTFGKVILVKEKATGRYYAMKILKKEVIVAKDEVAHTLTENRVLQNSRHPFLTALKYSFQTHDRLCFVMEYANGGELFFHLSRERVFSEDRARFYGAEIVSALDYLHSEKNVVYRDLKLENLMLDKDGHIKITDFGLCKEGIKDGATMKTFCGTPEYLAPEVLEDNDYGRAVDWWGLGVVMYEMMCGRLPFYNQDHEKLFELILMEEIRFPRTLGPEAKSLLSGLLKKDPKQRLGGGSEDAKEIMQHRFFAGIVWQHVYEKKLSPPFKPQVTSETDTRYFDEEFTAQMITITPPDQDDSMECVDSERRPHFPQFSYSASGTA

[7] = molecular target: rictor (UniProt Q6R327)
[8] = test system: PC3 cells; assay: apoptosis by DNA fragmentation (Cell Death Detection Elisa); conditions: PC3 cells expressing wild-type or S473D Akt1/PKB1, 100 μM
Experimental: Cells were selected for one week in 200 μg/ml hygromycin before use. 15,000 PC3 (MSCV controls, WT Akt1/PKB1, or 473D Akt1/PKB1) cells were seeded in the wells of a 96 well-plate and cultured overnight. The next day the cells were rinsed once in serum-free medium and then cultured for 48 hrs in serum-free medium containing either DMSO (the small molecule vehicle), 100 nM rapamycin, 100 μM indole-3-carbinol, or both rapamycin and indole-3-carbinol. When indole-3-carbinol was used, 0.002% BSA was added to the medium. After 48 hours in culture all cells (adherent and floating) were processed with the Cell Death Detection Elisa plus (Roche, cat# 1774425) as described by the manufacturer.

[9] = test system: PC3 cells; conditions: literature (Chinni & Sarkar); cited from earlier work

Sequence of mTORC2 assembly (P62942 2-108 limits assumed, other chains not shown): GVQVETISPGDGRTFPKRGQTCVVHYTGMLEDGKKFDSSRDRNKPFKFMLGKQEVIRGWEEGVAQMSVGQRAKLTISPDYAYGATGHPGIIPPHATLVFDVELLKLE

interaction between newly-synthesized mTOR and rictor prevented ([1]; HeLa cells): 80%
interaction between newly-synthesized mTOR and rictor prevented ([1]; PC3 cells): 100%
food intake versus vehicle [4]: ate similar amounts
Molecule: CO[C@H]1C[C@@H]2CC[C@@H](C)[C@@](O)(O2)C(=O)C(=O)N2CCCC[C@H]2C(=O)O[C@H]([C@H](C)C[C@@H]2CC[C@@H](O)[C@H](OC)C2)CC(=O)[C@H](C)/C=C(\C)[C@@H](O)[C@@H](OC)C(=O)[C@H](C)C[C@H](C)/C=C/C=C/C=C/1C [rapamycin]
tissue penetration [2]: penetrates all major tissues except the brain
side effect in patients [3]: hyperlipidemia commonly seen

Molecule: CN[C@@H]1C[C@H]2O[C@@](C)([C@@H]1OC)n1c3ccccc3c3c4c(c5c6ccccc6n2c5c31)C(=O)NC4 [Staurosporine, staurosporine]
in vitro phosphorylation of Akt/PKB by rictor-mTOR [5]: did not decrease

Molecule: rictor-mTOR complex
phosphorylation of S473 of Akt/PKB in vitro (immunoblot) [6]: Rictor-mTOR complexes isolated from HEK-293T or HeLa phosphorylated S473 but not T308 of full length, wild-type Akt/PKB in vitro

Molecule: mTOR (mammalian Target of Rapamycin kinase)
in vitro kinase activity of rictor immunoprecipitates towards Akt/PKB [7]: in HeLa and H460 cells treated with rapamycin for 24 hours, a greater amount of mTOR remained bound to rictor and this correlated with a higher level of kinase activity towards Akt/PKB
in vitro phosphorylation of Akt/PKB by immunoprecipitates [7]: the raptor immunoprecipitates also contain mTOR but did not phosphorylate Akt/PKB

Molecule: OCc1c[nH]c2ccccc12 [indole-3-carbinol]
induction of apoptosis [8]: decreased the capacity of indole-3-carbinol to induce apoptosis
apoptosis in PC3 cells [9]: known to induce apoptosis
